Experimental findings from US20100029604A1, “ANTIBACTERIAL COMBINATION AND ITS USE” (priority 2007, published 2010) are described below.

Each structure is given as a SMILES string. Where two headings read alike, the source gives them in different places.

Holding throughout (assay type): cell-based
In one experiment the test system is Klebsiella oxytoca LXA-1. The experiment in a line: MIC, characterised β-lactamase producing strain (Example 5, Tables 5-7). Conditions: Klebsiella oxytoca LXA-1, functional group 2b; LK-157 in combination constant 4 μg/mL.
The subject of another experiment is E. coli ESBL. The experiment in a line: Synergy MIC, inhibitor at 4 μg/mL (Example 3). Conditions: inhibitor constant 4 μg/mL. The method, then: (§1) Stock solutions of the test compounds and control antibiotics were prepared in distilled water according to the NCCLS guidelines [Methods for dilution antimicrobial tests for bacteria that grow aerobically. NCCLS document M7-A5; 2000; vol. 19. National Committee for Clinical Laboratory Standards, Villanova, Pa.]. All drug weights were corrected for salt forms and refer to the pure drug substance.
(§2) All tested strains and Clinical isolates were either purchased from the American Type Culture Collection (ATCC), or from the in-house company culture collection.
(§3) Stock cultures were prepared from broth cultures grown at 35° C. for 18-22 h without agitation and subsequent addition of 5% DMSO (v/v, final concentration) as cryoprotectant and stored frozen in liquid nitrogen. Mueller-Hinton II broth (MHBII) (BBL Cockeysville, Md.) was used for the testing procedure.
(§4) The in vitro activities of the antibiotics were determined by the broth microdilution method and agar dilution technique as recommended by CLSI guidelines. The MIC experiments were performed in duplicate in 96-well microtiter plates using MHB. Serial twofold dilutions of each antibiotic either alone or in combination with a constant amount (4 μg/mL) of a β-lactamase inhibitor were prepared in MHBII broth. A sterile pipette tip was used to mix the contents of each well (one tip was used going from the low to the high concentration in the same column). The bacterial suspension with final inoculum 10^5 CFU/mL was transferred to the test medium containing the antibacterial substances by a multipoint inoculator (Dynatech, Chantilly, Va., USA). The plates were then incubated at 35° C. for 24 h.
(§5) Representative compound of Formula (I) was evaluated against the serine-based Class A β-lactamases including TEM-type, SHV-type extended spectrum β-lactamases (ESBL) and various non-ESBL enzymes of enterobacteriaceae as well as BRO-type enzymes of Moraxella catarrhalis and penicillinases of Staphylococcus aureus.

In another experiment the test system is E. coli SHV-3. The experiment can be described thus: Synergy MIC, inhibitor at 4 μg/mL (Example 3). Conditions: β-lactamase SHV-3 (Table 3 r9), inhibitor constant 4 μg/mL. The method, then:
as §1, §2, §3, §4, §5

In the next experiment the test system is C. freundii ESBL. The experiment can be described thus: Synergy MIC, inhibitor at 4 μg/mL (Example 3). The settings on record: ESBL (Table 3 r25), inhibitor constant 4 μg/mL. The method, then: as §1, §2, §3, §4, §5
Another experiment deals with E. cloacae SHV-12. The experiment can be described thus: Synergy MIC, inhibitor at 4 μg/mL (Example 3). Conditions: β-lactamase SHV-12 (Table 3 r11), inhibitor constant 4 μg/mL. The method, then: as §1, §2, §3, §4, §5
Another experiment deals with C. freundii SHV-5. The experiment in a line: Synergy MIC, inhibitor at 4 μg/mL (Example 3). The settings on record: β-lactamase SHV-5 (Table 3 r10), inhibitor constant 4 μg/mL. The method, then:
as §1, §2, §3, §4, §5

The test system of the next experiment is K. oxytoca ESBL. The experiment in a line: Synergy MIC, inhibitor at 4 μg/mL (Example 3). The settings on record: ESBL (Table 3 r26), inhibitor constant 4 μg/mL. The method, then: as §1, §2, §3, §4, §5
The next experiment concerns K. pneumoniae SHV. The experiment in a line: Synergy MIC, inhibitor at 4 μg/mL (Example 3). The settings on record: β-lactamase SHV, inhibitor constant 4 μg/mL. The method, then: as §1, §2, §3, §4, §5
Another experiment relates to E. coli TEM-1. Conditions: inhibitor constant 4 μg/mL. The method, then: as §1, §2, §3, §4, §5
A further experiment deals with E. coli TEM-3. The settings on record: β-lactamase TEM-3 (Table 3 r16), inhibitor constant 4 μg/mL. The method, then: as §1, §2, §3, §4, §5
Experiment [1] deals with Klebsiella pneumoniae CTX-M1. The experiment in a line: MIC, characterised β-lactamase producing strain (Example 5, Table 7). Conditions: CTXM1, combination at constant concentration ratio (2:1). From the text:
(§6) Their MICs were compared with that of cefotaxime, cefotaxime/tazobactam, ceftazidime, ceftazidime/tazobactam, cefepime, cefepime/tazobactam, and piperacillin/tazobactam.

For the next experiment, the system named is Escherichia coli CTX-M15. Described as above. Conditions: CTXM15, combination at constant concentration ratio (2:1).
Source text: as §6

The next experiment has as its system Escherichia coli CTX-M9. The description is as above. The settings on record: CTXM9, combination at constant concentration ratio (2:1).
Source text: as §6

Experiment [2] has as its system Klebsiella pneumoniae CTX-M14. The experiment is described as above. The settings on record: CTXM14, combination at constant concentration ratio (2:1).
Source text: as §6

The test system of experiment [3] is Enterobacter cloacae CTX-M9. The description is as above. The settings on record: CTXM9, combination at constant concentration ratio (2:1).
Source text: as §6

The subject of experiment [4] is Klebsiella pneumoniae CTX-M15. The description is as above. The settings on record: CTXM15, combination at constant concentration ratio (2:1).
Source text: as §6

As a reminder, the MIC is the lowest concentration that inhibits growth of the organism. With `CO/N=C(\C(=O)N[C@@H]1C(=O)N2C(C(=O)[O-])=C(C[N+]3(C)CCCC3)CS[C@H]12)c1csc(N)n1` [cefepime], the MIC with Klebsiella oxytoca LXA-1 came out at 0.125 µg/mL.

As for `CC(C)(O/N=C(\C(=O)N[C@@H]1C(=O)N2C(C(=O)[O-])=C(C[n+]3ccccc3)CS[C@H]12)c1csc(N)n1)C(=O)O` [ceftazidime], the MIC was 1.6 µg/mL in the experiment with E. coli ESBL (first listed (Table 3 r21)); > 25.6 µg/mL in the experiment with E. coli ESBL (fourth listed (Table 3 r24)); 0.4 µg/mL in the experiment on E. coli ESBL (second listed (Table 3 r22)); 0.2 µg/mL in the experiment with E. coli ESBL (third listed (Table 3 r23)); 1.6 µg/mL in the experiment on E. coli SHV-3; > 25.6 µg/mL in the experiment with C. freundii ESBL. Besides, the minimal inhibitory concentration (MIC) with E. cloacae SHV-12 was > 25.6 µg/mL; in the experiment with C. freundii SHV-5, > 25.6 µg/mL; in the experiment on K. oxytoca ESBL, 0.4 µg/mL; in the experiment on K. pneumoniae SHV (first listed (Table 3 r12)), > 25.6 µg/mL; with K. pneumoniae SHV (second listed (Table 3 r13)), 12.8 µg/mL; with E. coli TEM-1 (β-lactamase TEM-1, first listed (Table 3 r14)), 0.2 µg/mL. Further, the MIC in the experiment with E. coli TEM-1 (β-lactamase TEM-1, second listed (Table 3 r15)) was 3.2 µg/mL; with E. coli TEM-3, > 25.6 µg/mL; in experiment [1] it was 16 µg/mL; in the experiment with Escherichia coli CTX-M15, 32 µg/mL; with Escherichia coli CTX-M9 it was 2 µg/mL; in experiment [2], 8 µg/mL. For the same compound, the MIC in experiment [3] was found to be 0.5 µg/mL; in experiment [4], 32 µg/mL.
